Experimental findings from US20130345204A1, “SUBSTITUTED BICYCLIC CYCLOALKYL PYRAZOLE LACTAM ANALOGS AS ALLOSTERIC MODULATORS OF MGLUR5 RECEPTORS” (Vanderbilt University, priority 2012, published 2013) are described below.

Molecules are shown by their SMILES.

For assay [1], the target named is human mGluR5 (Homo sapiens, UniProt P41594). As to the kind of experiment: Cell-based functional Ca2+ mobilization assay (FDSS), potentiation of glutamate EC20 response. To be noted: H10H cell-line. An excerpt:
Human mGluR5a cDNA in pCMV6-XL6 mammalian expression plasmid was purchased from OriGene Technologies, Inc. (catalogue number SC326357) and subcloned into pcDNA3.1(-). Human embryonic kidney (HEK)293A cells were then transfected with human mGluR5a pcDNA3.1(-) using LipofectAmine-2000 (Invitrogen) and monoclones were selected and tested for functional response using a Ca^2+ mobilization assay. Monoclones were named for the species (“H” for human) plus the location on the plate (e.g. “10H”). […] Cell-lines used were either the H10H or […] cell-lines expressing the human mGluR5 receptor. The following day, the growth medium was removed and the cells were washed with assay buffer containing 1× Hank's balanced salt solution (Invitrogen, Carlsbad, Calif.), 20 mM HEPES, 2.5 mM probenecid, pH 7.4 and left with 20 μL of this reagent. Following this step, the cells were loaded with calcium indicator dye, fluo-4 AM, to a final concentration of 2 μM and incubated for 40-45 min at 37° C. The dye solution was removed and replaced with assay buffer. Cell plates were held for 10-15 min at room temperature and were then loaded into the Functional Drug Screening System 6000 (FDSS 6000, Hamamatsu, Japan). […] Calcium fluorescence measures were recorded as fold over basal fluorescence; raw data was then normalized to the maximal response to glutamate. […] The concentration-response curves of compounds of the present invention, obtained in the presence of EC20 of mGluR5 receptor agonist glutamate to determine positive allosteric modulation, were generated using Microsoft Excel with IDBS XLfit add-ins. The raw data file containing all time points was used as the data source in the analysis template. This was saved by the FDSS as a tab-delimited text file. Data were normalized using a static ratio function (F/F0) for each measurement of the total 350 values per well divided by each well's initial value. […] This is sufficient time to capture the peak amplitude of the cellular Calcium response. […] Each of the three values collected at each concentration of test compound were weighted evenly. Individual values falling outside the 95% prediction limits of the curve fit were automatically excluded from the fit. […] These two methods are in good agreement for curves with a clear plateau at the high concentration range. […] For consistency purposes across the range of potencies observed, all EMax values reported in this application are calculated using the maximum average response at a single concentration. The % EMax value for each compound reported in this application is defined as the maximum % effect obtained in a concentration-response curve of that compound expressed as a percent of the response of a maximally effect concentration of glutamate. […] Table IV below lists specific compounds as well as experimentally determined mGluR5 activity determined in a cell-based. The mGluR5 activity was determined using the metabotropic glutamate receptor activity assays in human embryonic kidney cells as described herein, wherein the human embryonic kidney cells were transfected with human mGluR5. The data in Table III were obtained using the H10H cell-line which expresses recombinant human mGluR5. The compound number corresponds to the compound numbers used in Table I.

The test system of assay [2] is amphetamine-induced hyperlocomotion. Description: Reversal of amphetamine-induced hyperlocomotion in rat. It counts as in vivo. The settings on record: male Sprague-Dawley rats; compound p.o.; amphetamine 1 mg/kg s.c. The method, then:
The study was carried out using male Sprague-Dawley rats weighing 225 g-275 g, between 2-3 months old (Harlan, Inc., Indianapolis, Ind.). They were kept in the animal care facility certified by the American Association for the Accreditation of Laboratory Animal Care (AALAC) under a 12-hour light/dark cycle (lights on: 6 a.m.; lights off: 6 p.m.) and had free access to food and water. The experimental protocols performed during the light cycle were approved by the Institutional Animals Care and Use Committee of Vanderbilt University and conformed to the guidelines established by the National Research Council Guide for the Care and Use of Laboratory Animals.
Locomotor activity was assessed as mean distance traveled (cm) in Smart Open Field locomotor activity test chambers (Hamilton-Kinder, San Diego, Calif.) with 16×16 photobeams with chambers measuring 43.2 cm (Length)×43.2 cm (Width)×30.5 cm (Height) (Med Associates, St. Albans, Vt.). […] At 60 min, all rats were injected subcutaneously with 1 mg/kg amphetamine or vehicle and then monitored for an additional 60 min. Animals are monitored for a total of 120 minutes.
Data are expressed as the mean (±SEM) distance traveled recorded in 5 min intervals over the test period. The data was analyzed using repeated measures analysis of variance (ANOVA) followed by post-hoc testing using Dunnett's test, when appropriate. […]

Sequence of human mGluR5 (P41594 21-1180 isoform P41594-2 limits assumed): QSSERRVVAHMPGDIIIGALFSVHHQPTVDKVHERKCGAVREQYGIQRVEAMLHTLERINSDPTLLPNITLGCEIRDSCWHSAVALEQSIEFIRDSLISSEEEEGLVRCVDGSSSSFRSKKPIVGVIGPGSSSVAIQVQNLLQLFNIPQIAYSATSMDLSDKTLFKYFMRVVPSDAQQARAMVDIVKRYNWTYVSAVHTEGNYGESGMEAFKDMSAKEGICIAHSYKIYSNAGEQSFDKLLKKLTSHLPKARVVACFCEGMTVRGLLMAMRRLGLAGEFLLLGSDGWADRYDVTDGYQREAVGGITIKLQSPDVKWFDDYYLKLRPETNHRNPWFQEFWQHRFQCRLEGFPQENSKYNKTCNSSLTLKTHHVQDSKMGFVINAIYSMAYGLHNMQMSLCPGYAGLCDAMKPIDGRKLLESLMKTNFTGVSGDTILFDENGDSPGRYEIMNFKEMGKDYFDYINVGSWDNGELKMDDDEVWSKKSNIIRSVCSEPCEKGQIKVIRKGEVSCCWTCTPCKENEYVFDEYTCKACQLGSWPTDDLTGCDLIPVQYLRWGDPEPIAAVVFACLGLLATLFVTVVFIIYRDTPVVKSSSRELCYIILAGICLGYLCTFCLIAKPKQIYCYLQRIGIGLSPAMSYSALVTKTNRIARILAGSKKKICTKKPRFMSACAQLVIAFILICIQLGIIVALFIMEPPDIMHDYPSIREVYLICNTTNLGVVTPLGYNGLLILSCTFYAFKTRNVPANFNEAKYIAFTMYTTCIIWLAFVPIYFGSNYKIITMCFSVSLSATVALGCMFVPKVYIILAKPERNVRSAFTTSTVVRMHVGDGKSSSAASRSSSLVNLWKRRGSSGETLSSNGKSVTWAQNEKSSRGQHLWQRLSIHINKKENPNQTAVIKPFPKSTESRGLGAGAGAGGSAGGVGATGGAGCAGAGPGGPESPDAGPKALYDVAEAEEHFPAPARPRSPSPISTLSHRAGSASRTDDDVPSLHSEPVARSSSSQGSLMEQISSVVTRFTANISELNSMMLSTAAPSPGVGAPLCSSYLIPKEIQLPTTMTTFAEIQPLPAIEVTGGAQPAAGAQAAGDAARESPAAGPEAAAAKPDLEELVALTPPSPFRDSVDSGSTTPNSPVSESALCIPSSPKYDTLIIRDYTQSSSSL

For orientation: Emax means the size of the effect at its maximum, as opposed to the concentration needed. The EC50 is the concentration at which the effect is half-maximal. As for `O=C1c2cc(COc3ccccc3)nn2CCN1C[C@H]1CC1(F)F` [Compound 1, (R)-5-((2,2-difluorocyclopropyl)methyl)-2-(phenoxymethyl)-6,7-dihydropyrazolo[1,5-a]pyrazin-4(5H)-one], in assay [1] (maximum % effect as percent of response to maximally effective glutamate, glutamate EC20 present, read-out: Emax (%)), the Emax stood at 55%. In addition, the EC50 in assay [1] (potentiation in presence of glutamate EC20) was 234 nM. Also, the “reversal of amphetamine-induced hyperlocomotion” value in assay [2] was “effective in reducing amphetamine-induced hyperlocomotion”.
With `O=C1c2cc(COc3ccccc3)nn2CCN1CC1CC1(F)F` (stereo in doubt) [Compound 2, (S)-5-((2,2-difluorocyclopropyl)methyl)-2-(phenoxymethyl)-6,7-dihydropyrazolo[1,5-a]pyrazin-4(5H)-one], in assay [2], the “reversal of amphetamine-induced hyperlocomotion” value is reported as “effective in reducing amphetamine-induced hyperlocomotion”.
